Reference: ChEMBL document CHEMBL1201862, “PubChem BioAssay data set” (2004)
Calls of active or inactive are those of the source.

Experiments:
[1] = molecular target: fMet-Leu-Phe receptor (Homo sapiens, UniProt P21462); experiment: formyl peptide receptor binders – dose response (AID 519); type: functional
[2] = molecular target: Protein Tat (Human immunodeficiency virus type 1 group M subtype B (isolate HXB2)(HIV-1), UniProt P04608); type: functional;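 note: tat binding to TAR RNA read out by fluorescence polarization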
Chain of Protein Tat (P04608 whole entry): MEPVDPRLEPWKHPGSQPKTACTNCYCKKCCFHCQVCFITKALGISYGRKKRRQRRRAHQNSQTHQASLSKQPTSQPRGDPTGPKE

[3] = molecular target: T1, Fatty acid synthase (Homo sapiens, UniProt P49327); experiment: inhibition of human FAS-TE enzyme activity – biochemical, kinetic fluorescence intensity, dose response (AID 624326); type: functional;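 note: rate of fluorescence rise from hydrolysis of a fluorogenic O-methyl fluorescein ester substrate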
T1 sequence (P49327 whole entry): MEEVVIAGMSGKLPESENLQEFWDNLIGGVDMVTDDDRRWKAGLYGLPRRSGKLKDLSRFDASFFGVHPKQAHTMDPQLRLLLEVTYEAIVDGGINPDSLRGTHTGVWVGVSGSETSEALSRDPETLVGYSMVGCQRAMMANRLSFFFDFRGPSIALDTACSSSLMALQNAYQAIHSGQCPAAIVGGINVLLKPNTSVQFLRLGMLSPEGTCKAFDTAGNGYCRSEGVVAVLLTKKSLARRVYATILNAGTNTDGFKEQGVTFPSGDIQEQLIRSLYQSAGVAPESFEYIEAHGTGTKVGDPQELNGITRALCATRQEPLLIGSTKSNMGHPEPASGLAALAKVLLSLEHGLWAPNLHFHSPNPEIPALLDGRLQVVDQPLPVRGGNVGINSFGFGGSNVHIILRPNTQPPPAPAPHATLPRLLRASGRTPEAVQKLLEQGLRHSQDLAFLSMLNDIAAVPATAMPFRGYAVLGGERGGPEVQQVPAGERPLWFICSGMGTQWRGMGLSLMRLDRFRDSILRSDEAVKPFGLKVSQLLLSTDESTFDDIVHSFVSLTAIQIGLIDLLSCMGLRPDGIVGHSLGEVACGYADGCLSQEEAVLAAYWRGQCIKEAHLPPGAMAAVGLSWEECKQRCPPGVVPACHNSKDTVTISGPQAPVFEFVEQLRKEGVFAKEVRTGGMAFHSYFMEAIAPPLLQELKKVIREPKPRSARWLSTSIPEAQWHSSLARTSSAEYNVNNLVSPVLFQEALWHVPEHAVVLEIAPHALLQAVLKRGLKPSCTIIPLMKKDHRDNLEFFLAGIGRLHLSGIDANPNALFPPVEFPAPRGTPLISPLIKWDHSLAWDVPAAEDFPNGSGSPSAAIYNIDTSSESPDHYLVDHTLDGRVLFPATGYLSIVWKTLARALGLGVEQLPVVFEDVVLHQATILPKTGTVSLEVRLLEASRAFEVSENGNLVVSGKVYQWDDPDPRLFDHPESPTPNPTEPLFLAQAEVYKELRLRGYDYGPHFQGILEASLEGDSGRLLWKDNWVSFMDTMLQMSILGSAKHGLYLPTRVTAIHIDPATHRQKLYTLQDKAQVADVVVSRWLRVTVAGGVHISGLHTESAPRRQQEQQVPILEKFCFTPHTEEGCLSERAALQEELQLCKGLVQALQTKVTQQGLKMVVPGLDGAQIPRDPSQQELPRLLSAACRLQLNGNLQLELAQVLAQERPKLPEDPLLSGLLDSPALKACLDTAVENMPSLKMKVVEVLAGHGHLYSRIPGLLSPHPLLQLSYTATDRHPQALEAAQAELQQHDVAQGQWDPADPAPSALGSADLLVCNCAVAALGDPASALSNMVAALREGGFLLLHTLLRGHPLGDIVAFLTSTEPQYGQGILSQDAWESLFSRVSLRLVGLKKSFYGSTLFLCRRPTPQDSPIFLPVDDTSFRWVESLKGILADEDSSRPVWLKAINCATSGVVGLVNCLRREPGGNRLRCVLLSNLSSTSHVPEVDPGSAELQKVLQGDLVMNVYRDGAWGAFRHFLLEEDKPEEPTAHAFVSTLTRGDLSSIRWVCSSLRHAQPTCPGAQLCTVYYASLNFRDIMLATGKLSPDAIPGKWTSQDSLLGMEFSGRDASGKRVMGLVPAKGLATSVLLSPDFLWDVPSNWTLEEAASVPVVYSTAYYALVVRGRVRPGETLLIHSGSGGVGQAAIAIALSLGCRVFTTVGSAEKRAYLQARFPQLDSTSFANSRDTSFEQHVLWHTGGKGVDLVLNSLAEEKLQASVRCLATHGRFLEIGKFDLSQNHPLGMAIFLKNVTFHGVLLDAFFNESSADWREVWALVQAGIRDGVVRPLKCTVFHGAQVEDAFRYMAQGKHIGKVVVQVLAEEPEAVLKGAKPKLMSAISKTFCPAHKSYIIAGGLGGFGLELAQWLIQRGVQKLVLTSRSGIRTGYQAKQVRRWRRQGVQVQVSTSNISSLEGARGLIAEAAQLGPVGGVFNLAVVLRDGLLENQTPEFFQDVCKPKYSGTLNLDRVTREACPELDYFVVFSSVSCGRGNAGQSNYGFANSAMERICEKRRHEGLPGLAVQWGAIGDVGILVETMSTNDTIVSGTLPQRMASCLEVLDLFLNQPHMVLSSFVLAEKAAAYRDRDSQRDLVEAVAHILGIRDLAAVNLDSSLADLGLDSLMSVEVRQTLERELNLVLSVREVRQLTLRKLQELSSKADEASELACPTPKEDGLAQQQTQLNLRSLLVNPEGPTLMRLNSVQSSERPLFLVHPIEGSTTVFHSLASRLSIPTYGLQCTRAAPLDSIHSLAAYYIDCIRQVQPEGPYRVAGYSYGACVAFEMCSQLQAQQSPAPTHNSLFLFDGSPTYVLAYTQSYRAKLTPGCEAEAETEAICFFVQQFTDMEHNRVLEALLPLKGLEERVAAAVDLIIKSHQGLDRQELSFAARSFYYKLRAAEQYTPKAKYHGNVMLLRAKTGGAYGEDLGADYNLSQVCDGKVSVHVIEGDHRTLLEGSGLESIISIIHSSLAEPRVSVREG

[4] = potency of ADAM10 substrate cleavage blockers – biochemical, QFRET, dose response (AID 743254);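 note: ADAM10 enzyme with the DM2 quenched FRET peptide as substrate; EDANS fluorescence gain as the protease cuts the substrate; inhibitor potency against ADAM10 proteolytic activity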
[5] = tested on: Streptococcus sp. 'group A'; experiment: Streptococcus pyogenes SK(-)GAS viability under kanamycin – luminescence, BacTiterGlo, confirmation, counter-screen for streptokinase expression inhibitor project, dose response (AID 1900); type: functional, organism-based
[6] = molecular target: Disintegrin and metalloproteinase domain-containing protein 17 (Homo sapiens, UniProt P78536); experiment: inhibition of ADAM17 substrate cleavage – biochemical, quenched FRET substrate, counter-screen for ADAM10 exosite inhibitor project, dose response (AID 743253)
Chain of Disintegrin and metalloproteinase domain-containing protein 17 (P78536 whole entry, the tested form may be a part): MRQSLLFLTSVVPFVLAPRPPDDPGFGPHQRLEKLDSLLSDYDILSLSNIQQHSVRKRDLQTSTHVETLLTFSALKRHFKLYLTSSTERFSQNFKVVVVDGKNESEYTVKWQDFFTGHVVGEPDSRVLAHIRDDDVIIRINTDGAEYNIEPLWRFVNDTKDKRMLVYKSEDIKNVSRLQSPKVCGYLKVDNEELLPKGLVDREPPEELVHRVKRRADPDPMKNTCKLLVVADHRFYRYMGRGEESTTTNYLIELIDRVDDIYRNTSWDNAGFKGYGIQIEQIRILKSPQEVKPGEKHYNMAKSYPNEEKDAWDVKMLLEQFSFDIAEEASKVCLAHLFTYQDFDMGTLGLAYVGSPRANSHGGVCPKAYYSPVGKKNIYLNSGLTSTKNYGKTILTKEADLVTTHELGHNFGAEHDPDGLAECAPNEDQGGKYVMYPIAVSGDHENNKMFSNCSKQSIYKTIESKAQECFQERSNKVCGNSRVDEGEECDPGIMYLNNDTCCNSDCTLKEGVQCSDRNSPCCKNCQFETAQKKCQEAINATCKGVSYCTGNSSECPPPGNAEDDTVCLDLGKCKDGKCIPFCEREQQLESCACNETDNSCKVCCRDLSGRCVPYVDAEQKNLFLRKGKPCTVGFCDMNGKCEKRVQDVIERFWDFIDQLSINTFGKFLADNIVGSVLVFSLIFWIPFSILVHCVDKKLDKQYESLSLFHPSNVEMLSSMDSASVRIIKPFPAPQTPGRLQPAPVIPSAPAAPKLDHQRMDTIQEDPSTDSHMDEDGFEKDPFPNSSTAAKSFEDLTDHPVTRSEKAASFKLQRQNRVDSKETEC

[7] = molecular target: T2, Streptokinase A (Streptococcus pyogenes serotype M1, UniProt P10520); experiment: viability-normalized secreted streptokinase activity reduction – plasminogen activation absorbance, OD405, dose response (AID 1914); type: functional, Streptococcus pyogenes M1 GAS;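 note: secreted streptokinase activity via plasminogen activation per viability signal from cell pellet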
T2 sequence (P10520 whole entry): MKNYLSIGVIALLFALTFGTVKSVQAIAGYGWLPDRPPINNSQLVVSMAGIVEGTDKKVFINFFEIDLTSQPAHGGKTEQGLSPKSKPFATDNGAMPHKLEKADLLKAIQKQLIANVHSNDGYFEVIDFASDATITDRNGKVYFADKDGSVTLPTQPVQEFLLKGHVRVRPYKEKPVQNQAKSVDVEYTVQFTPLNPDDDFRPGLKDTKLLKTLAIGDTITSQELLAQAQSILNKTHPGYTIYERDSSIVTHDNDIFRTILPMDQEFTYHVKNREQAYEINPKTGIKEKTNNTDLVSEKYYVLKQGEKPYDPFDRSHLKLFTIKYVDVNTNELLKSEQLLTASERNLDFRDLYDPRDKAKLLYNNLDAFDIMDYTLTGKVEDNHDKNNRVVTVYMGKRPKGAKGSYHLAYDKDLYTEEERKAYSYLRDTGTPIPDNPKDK

[8] = molecular target: T1, Fatty acid synthase; experiment: inhibition of human FAS-TE enzyme activity – biochemical, endpoint fluorescence intensity, uHTS hits, dose response (AID 624327); type: functional;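 note: fluorescence from hydrolysis of an O-methyl fluorescein acyl ester substrate by the enzyme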
[9] = tested on: Streptococcus; experiment: GAS UMAA2166 growth inhibition – luminescence, BacTiterGlo, counter-screen for streptokinase expression inhibitor project, dose response (AID 1915); type: functional, organism-based;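 note: potency for reduction of bacterial viability or growth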
[10] = general mammalian cell viability loss – inhibitor set, cherry-pick, set 2, cytotoxicity control for miR-122 modulator project, dose response (AID 720697); type: functional, cell-based
[11] = molecular target: Paired box protein Pax-8 (Homo sapiens, UniProt Q06710); experiment: PAX8 transcriptional activity inhibition in RMG-I – RMG-I cells, luciferase, cherry-pick, dose response (AID 687027); type: functional, cell-based;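 note: luciferase reporter driven by Pax8 target thyroperoxidase promoter measured by SteadyGlo luminescence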
Chain of Paired box protein Pax-8 (Q06710 whole entry): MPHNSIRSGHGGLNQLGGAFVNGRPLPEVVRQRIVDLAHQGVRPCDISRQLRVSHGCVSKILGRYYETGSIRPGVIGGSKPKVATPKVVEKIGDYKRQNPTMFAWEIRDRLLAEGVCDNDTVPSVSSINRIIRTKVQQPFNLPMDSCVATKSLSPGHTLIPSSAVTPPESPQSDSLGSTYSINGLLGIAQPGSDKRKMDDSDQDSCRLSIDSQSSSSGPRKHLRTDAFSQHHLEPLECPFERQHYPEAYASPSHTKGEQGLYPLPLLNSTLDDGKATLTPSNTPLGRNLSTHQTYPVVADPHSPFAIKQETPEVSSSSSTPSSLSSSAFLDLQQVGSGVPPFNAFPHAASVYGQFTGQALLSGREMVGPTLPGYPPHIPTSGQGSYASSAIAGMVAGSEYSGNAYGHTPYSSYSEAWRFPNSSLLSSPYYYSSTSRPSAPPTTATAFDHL

[12] = OVCAR-3 cell viability loss – plate reader, dry powder samples, PAX8 inhibitor project, dose response (AID 743044); type: functional, cell-based
[13] = general mammalian cell viability loss – activator set, cherry-pick, cytotoxicity control for miR-122 modulator project, dose response (AID 720690); type: functional, cell-based;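 note: HEK293T human cells scored for general mammalian cytotoxicity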
[14] = activation of miR-122 Renilla sensor silencing – cell-based, Huh7 psiCHECK-miR122, Renilla luciferase, cherry-picked, dose response (AID 651956); type: functional;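 note: huh7 hepatoma cells stably carrying a psiCHECK-2 miR-122 sensor plasmid; renilla luciferase signal reporting endogenous miR-122 activity after 48 h compound exposure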
[15] = blockers of HIV-1 ZM109 envelope-driven cell-cell fusion – HeLa effector, CEM target cells, luciferase, cherry-pick, dose response (AID 652058); type: functional, cell-based;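 note: luciferase signal from HIV-1 Env mediated cell-cell fusion of effector and target cells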
[16] = off-target signal loss in HeLa-CEM21 co-culture – HeLa F-luc CTL cells, cherry-picked, counter-screen for HIV-1 Env fusion inhibitor project, dose response (AID 652040); type: functional, cell-based;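 note: potency for signal decrease marking cytotoxic or nonspecific inhibition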
[17] = HIV-1 AD8 envelope cell-cell fusion blockers – cherry-pick, dose response (AID 652062); type: functional, cell-based;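 note: luciferase signal from cell-cell fusion driven by HIV-1 clade B AD8 Env; potency is for inhibitors of fusion seen as a drop in luminescence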
[18] = molecular target: COUP transcription factor 2 (Homo sapiens, UniProt P24468); experiment: Luminescence-based cell-based high throughput dose response assay to identify inhibitors of COUP-TFII (NR2F2).; type: functional;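 note: HEK293 cells transiently cotransfected with COUP-TFII expression vector and reporter; luciferase reporter luminescence driven by COUP-TFII from the pX2-168 reporter plasmid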
Chain of COUP transcription factor 2 (P24468 whole entry): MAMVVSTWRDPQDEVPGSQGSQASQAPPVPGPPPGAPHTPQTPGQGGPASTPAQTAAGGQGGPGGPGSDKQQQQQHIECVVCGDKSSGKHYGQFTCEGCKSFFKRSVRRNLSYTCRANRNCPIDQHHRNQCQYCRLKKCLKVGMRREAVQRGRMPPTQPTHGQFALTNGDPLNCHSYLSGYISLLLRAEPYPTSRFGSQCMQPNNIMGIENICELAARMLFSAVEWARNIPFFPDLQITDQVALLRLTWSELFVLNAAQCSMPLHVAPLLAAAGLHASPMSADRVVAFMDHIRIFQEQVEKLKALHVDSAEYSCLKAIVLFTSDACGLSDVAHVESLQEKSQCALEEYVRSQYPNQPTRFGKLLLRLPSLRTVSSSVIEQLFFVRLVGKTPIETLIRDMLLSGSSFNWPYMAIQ

[19] = cells; type: functional, cell-based; settings: HEK-CNG
[20] = molecular target: T3, Galanin receptor type 3 (Homo sapiens, UniProt O60755); experiment: Fluorescence-based cell-based primary high throughput dose response assay to identify antagonists of the Galanin Receptor 3 (GalR3).; type: functional
T3 sequence (O60755 whole entry): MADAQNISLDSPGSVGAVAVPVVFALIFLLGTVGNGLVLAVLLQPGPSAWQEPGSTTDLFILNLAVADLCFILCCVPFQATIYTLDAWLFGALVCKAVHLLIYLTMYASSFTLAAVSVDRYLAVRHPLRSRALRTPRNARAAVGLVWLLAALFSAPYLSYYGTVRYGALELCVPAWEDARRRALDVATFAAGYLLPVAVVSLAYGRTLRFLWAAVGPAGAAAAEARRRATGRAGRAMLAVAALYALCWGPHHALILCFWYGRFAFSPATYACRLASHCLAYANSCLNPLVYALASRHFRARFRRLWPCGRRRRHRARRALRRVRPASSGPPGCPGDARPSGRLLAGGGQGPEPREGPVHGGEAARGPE

[21] = growth inhibition of PfATP4-mutant resistant parasites – NITD609-resistant line, SYBR Green, dry powder, dose response (AID 1159571); type: functional, cell-based;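 note: parasites synchronized at ring stage by sorbitol before testing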
[22] = toxicity toward HepG2 liver cells – cell-based, plate reader, cherry-pick, antagonist series, cytotoxicity control, dose response (AID 743416); type: functional
[23] = viability loss in HEK293 cells – cell-based, plate reader, cherry-picked samples, cytotoxicity control, dose response (AID 743446); type: functional
[24] = IGROV1 cell killing – plate reader, dry powder samples, PAX8 inhibitor project, dose response (AID 743043); type: functional, cell-based; settings: IGROV-1
[25] = A549 cell cytotoxicity, dose response, cytotoxicity control, plate reader, cherry-pick, antagonist series (AID 743412); type: functional, cell-based
[26] = growth inhibition of yeast DHODH-expressing 3D7 parasites – SYBR Green, dry powder samples, dose response (AID 1159570); type: functional, cell-based;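 note: parasite growth measured after 72 hours of compound exposure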
[27] = P. falciparum Dd2 growth inhibitors, dose response, SYBR Green, cherry-picked samples (AID 1159567); type: functional, cell-based
[28] = toxicity toward immortalized ovarian surface epithelium – cell-based, plate reader, dry powder samples, cytotoxicity control for PAX8 inhibitor project, dose response (AID 743045); type: functional
[29] = blockers of bursicon-stimulated LGR2 cAMP reporter – cell-based, HEK293, CRE-luciferase reporter, cherry pick, set 2, dose response (AID 743343); type: functional;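 note: transfected cells were stimulated with diluted bursicon conditioned medium after compound addition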
[30] = Dd2 malaria parasite growth inhibition potency – SYBR Green, dry powder samples, dose response (AID 1159566); type: functional, cell-based;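 note: potency for growth inhibition with lower SYBR green DNA signal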
[31] = toxicity to human HepG2 hepatoma cells – cell-based, plate reader, dry powder samples, cytotoxicity control, dose response (AID 1159569); type: functional;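 note: inhibitor potency with signal falling toward the positive control level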
[32] = OVCAR8 cell viability loss – plate reader, dry powder samples, PAX8 project, dose response (AID 743197); type: functional, cell-based; settings: OVCAR-8
[33] = blockade of melanocortin 4 receptor signaling – cell-based, plate reader, cherry pick, counter-screen for LGR2 antagonist project, dose response (AID 743444); type: functional;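 note: transfected HEK 293 cells stimulated with alpha-MSH peptide; potency of inhibitors of the alpha-MSH evoked signal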
[34] = A2780 cell killing – plate reader, dry powder samples, cytotoxicity control, dose response (AID 743046); type: functional, cell-based
[35] = toxicity to human hepatoma HepG2 cells – cell-based, cherry-picked samples, cytotoxicity control, dose response (AID 1159577); type: functional

Chain of fMet-Leu-Phe receptor (P21462 whole entry): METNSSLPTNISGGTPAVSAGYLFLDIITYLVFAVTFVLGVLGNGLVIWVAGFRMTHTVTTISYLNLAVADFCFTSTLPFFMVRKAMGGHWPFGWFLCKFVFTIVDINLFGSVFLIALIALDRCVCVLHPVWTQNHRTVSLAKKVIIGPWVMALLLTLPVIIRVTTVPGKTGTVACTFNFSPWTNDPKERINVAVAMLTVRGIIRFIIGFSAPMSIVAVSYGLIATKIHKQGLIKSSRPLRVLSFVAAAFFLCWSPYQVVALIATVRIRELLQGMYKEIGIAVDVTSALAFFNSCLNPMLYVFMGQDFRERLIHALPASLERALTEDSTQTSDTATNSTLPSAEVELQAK

## O=C(C1=C(O)C(=O)N(Cc2ccccc2)C1c1ccncc1)c1ccco1 (stereo not given)
[1]
  Ki: 13.6 µM (active)

## CC(=O)Oc1cccc(N2C(=O)CC(Nc3ccc(N4CCOCC4)cc3)C2=O)c1 (stereo not given)
[2]
  IC50: 10.5 µM (inconclusive)

## Cc1ccc(NC(=O)c2[nH]cnc2C(=O)N[C@@H](CCCCNC(=O)OC(C)(C)C)C(=O)OC(C)(C)C)cc1
[3]
  IC50: 1.09 µM (active)
[4]
  IC50: > 7.72 µM (active)
[5]
  EC50: 5.58 µM (active)
[6]
  IC50: > 69.5 µM (inactive)
[7]
  EC50: > 150 µM (not active)
[8]
  IC50: 2.47 µM (active)
[9]
  EC50: 7.99 µM (active)

## COc1ccc(CN(C)C[C@@H]2OCCCC[C@H](C)Oc3ccc(NC(=O)Nc4ccc(C(F)(F)F)cc4)cc3C(=O)N([C@H](C)CO)C[C@@H]2C)cc1
[10]
  AC50: 12 µM (active)
[11]
  AC50: 20.1 µM (active)
[12]
  AC50: 44.6 µM (active)
[13]
  AC50: 14.5 µM (active)
[14]
  AC50: 17.5 µM (active)

## O=C(Nc1ccc(Oc2ccccc2)cc1)c1csc([C@H]2C[C@H](O)[C@@H](CO)O2)n1
[15]
  AC50: 27.4 µM (active)
[16]
  AC50: > 70 µM (inactive)
[17]
  AC50: 5.85 µM (active)
[18]
  IC50: 5.35 µM (active)
[19]
  EC50: > 29.9 µM (inactive)
[20]
  IC50: 0.4 µM (active)

## O=C(C1CC1)N1C[C@@H]2N[C@H](C1)[C@@H]2c1ccc(-c2ccncc2)cc1
[21]
  AC50: 0.974 µM (active)
[22]
  AC50: 21.4 µM (active)
[23]
  AC50: 24.5 µM (active)
[24]
  AC50: 13.1 µM (active)
[25]
  AC50: 2.89 µM (active)
[26]
  AC50: 0.629 µM (active)
[27]
  AC50: 0.965 µM (active)
[28]
  AC50: 12.2 µM (active)
[29]
  AC50: 5.41 µM (active)
[11]
  AC50: 2.98 µM (active)
[12]
  AC50: 13.2 µM (active)
[30]
  AC50: 0.555 µM (active)
[31]
  AC50: > 100 µM (inactive)
[32]
  AC50: 12.1 µM (active)
[33]
  AC50: 4.85 µM (active)
[34]
  AC50: 12.7 µM (active)

## O=C(NCC1CCCO1)c1ccc(NC(=O)C2CCCCC2C(=O)O)cc1 (stereo not given)
[1]
  Ki: > 66.7 µM (inactive)

## OC[C@H]1[C@@H](c2ccc(-c3cccc(F)c3)cc2)[C@@H]2CN(CCC(F)(F)F)CCCCN12
[21]
  AC50: 0.832 µM (active)
[26]
  AC50: 1.12 µM (active)
[27]
  AC50: 1.84 µM (active)
[30]
  AC50: 0.618 µM (active)
[31]
  AC50: 12.8 µM (active)
[35]
  AC50: 28.5 µM (active)

## C[C@@H]1CN([C@@H](C)CO)C(=O)Cc2cc(NC(=O)Nc3ccc(F)cc3)ccc2O[C@H]1CN(C)Cc1ccc(Oc2ccccc2)cc1
[27]
  AC50: 1.5 µM (active)
[35]
  AC50: 15.1 µM (active)
